In patent publication US20140161767A1, “FOLLICLE-STIMULATING HORMONE (FSH)/LYTIC DOMAIN FUSION CONSTRUCTS AND METHODS OF MAKING AND USING SAME” (BOARD OF SUPERVISORS OF LOUISIANA STATE UNIVERSITY AND …, priority 2012, published 2014):

Legend:
[1] = tested on: MDA-MB-435S.luc xenograft; assay: Mouse xenograft model of breast cancer, βCG fusion constructs; assay type: in vivo, mice; conditions: weekly bolus injections, days 13, 19, 25
Experimental: This example describes in vivo studies in a mouse xenograft model of breast cancer with various types and doses of βCG- and LHRH-fusion constructs.
Female Nu/Nu mice were injected subcutaneously with a MDA-MB-435S.luc/Matrigel HC suspension (1×10^6 cells). In brief, treatment started on day 13 after tumor cell injection and continued on day 19 and 25. […] The doses for weekly injections were 5, 1 and 0.01 mg/kg body weight, given as a bolus single injection.
The effect of cytolytic peptide injections on the primary tumors is illustrated in FIG. 8. In brief, the FIGS. 8A-8C show tumor volume during the course of the study for each individual peptide. FIGS. 8D-8G show tumor characteristics at necropsy: tumor volume (D), tumor weight (E), live tumor cells (F), tumor conditions (G).
Treatment efficacy was calculated as difference between measurements at the beginning of treatment compared to the measurement at the end of study (FIG. 8H-8I). […] Viability of cells in the tumors was determined at the end of the study when tumors were measured for luciferase activity.

MES-SA-Dx5 = assay: Cell viability after 4 hours (Cell Titer Glo), MES-SA-Dx5; assay type: cell-based, human; conditions: 4 h incubation; read-out: Activities [μM] MES-SA-Dx5 (p61)
Experimental: (§1) Human ovarian cancer cell lines OVCAR-3 (p 41), SKOV-3 (p 35) and the human uterine sarcoma cell line MES-SA-Dx5 (p 61) (multi-drug resistant clone), the human pancreatic cancer cell line Panc-1 (passage number 18), and human triple negative breast cancer cell line MDA-MB-231 (passage number 47) were grown in ATCC recommended medium, 10% fetal bovine serum, 100 IU/ml penicillin, 100 microg/ml streptomycin. Cells were typically seeded (2,000 cells per well) into 96 well plates and media was replaced after 48 hours of incubation. […] Each Phor-18-hFSH-β81-89 conjugate provided in lyophilized form was dissolved in saline and added to cells. The duration of incubation was 4 hours at 37° C. Cell viability was assessed after 4 hours using a luminometric assays (Promega, Cell Titer Glo, G755B, lot #00000031421). Controls contained saline or 0.1% triton as reference for 0 and 100% cell death, respectively.
(§2) Data were processed and analyzed using GraphPad Prism version 5.00 for Windows, GraphPad Software, San Diego Calif. USA, www.graphpad.com”. Statistical analysis for significance was determined by a two-tailed Student's T-test. Each study was conducted to achieve an N of at least 6.
(§3) In vitro activities were expressed as IC50 values for each cell line, time point and compound tested that were calculated using the Hill equation (Graph Pad Prizm software).

Panc-1 = assay: Cell viability after 4 hours (Cell Titer Glo), Panc-1; assay type: cell-based, human; conditions: 4 h incubation; read-out: Activities [μM] Panc1 (p18)
Experimental: as §1, §2, §3

OVCAR-3 [2] = assay: Cell viability after 4 hours (Cell Titer Glo), OVCAR-3; assay type: cell-based, human; conditions: 4 h incubation; read-out: Activities [μM] OVCAR-3 (p41)
Experimental: as §1, §2, §3

OVCAR-3 [3] = assay: IC50 in human cancer cell lines compared to cisplatinum: OVCAR-3; assay type: cell-based; conditions: ovarian cancer cell line
Experimental: MDA-MB-435S.luc cells were grown in Leibovitz's L 15 medium, 10% fetal bovine serum, 0.01 mg/ml bovine insulin, 100 IU/ml penicillin, 100 microg/ml streptomycin. The cells were cultured in tight closed flasks. The incubations were conducted using 96 well plates at 10,000 cells per well. Cells were typically seeded into 96 well plates and media was replaced after 48 hours of incubation. Each assay was conducted at increasing concentrations of 0, 0.001, 0.01, 0.05, 0.1, 0.5, 1, 2, 5, 10 and 100 micromolar doses of lytic peptide-binding domain conjugate. Each lytic peptide-binding domain conjugate provided in lyophilized form and was freshly dissolved in saline and added to cells. The duration of incubation was typically 24 h, and cell viability assays were conducted using formazan conversion assays (MTT assay). Controls contained saline or 0.1% triton as reference for 0 and 100% cell death, respectively.
To ascertain the IC50 of various fusion constructs on different human cancer cell lines compared to cisplatinum, IC50 of fusion constructs were evaluated as in Table 3.

OVCAR-3 cells = assay type: cell-based, human; conditions: OVCAR-3 (p47), values listed with increasing incubation time, times not stated
From the text: (§4) Membranes of non-cancerous cell lines are neutral and are resistant to cytolytic peptides, in contrast to cancer cell lines, which have a high phosphatidic acid content in their outer membrane.
(§5) The breast cancer cell lines studied were MDA-MB-4355 (estrogen receptor alpha negative), MCF-7 and T47D (estrogen receptor alpha positive), ovarian cancer cell lines (OVCAR-3 and SKOV-3), prostate cancer (LNCaP), the non-malignant breast epithelial cell line MCF-10A and the mouse fibroblast cell line NIH:3T3.
(§6) Cells were seeded into 96 well plates at a densitiy of 10,000 cells/well. […] Controls contained USP saline or 0.1% TritonX-100™ as reference for 0 and 100% cell death, respectively. […] Cell viability was assessed through formazan conversion assay (MTT assay, (CellTiter 96 Aqueous One, Promega # G3582). Formazan conversion was determined using a BioRad Benchmark Plus microplate spectrophotometer dual wavelengths at 490/630 nm at room temperature).
(§7) Data were calculated as fraction of absorption in TritonX-100™ containing wells representing 100% cell death versus 0% cell death in saline containing wells. Cytotoxicity was determined as IC50 using GraphPad Prism version 5.01 for Windows, GraphPad Software, San Diego Calif. […] 4 wells of each individual set of two 96 well plates were compared and analyzed. Statistical analysis for significance was determined by a two-tailed Student's T-test.

SKOV-3 cells = assay type: cell-based, human; conditions: SKOV-3, 24 hours incubation; read-out: IC50 (maximal efficacy)
From the text: as §4, §5, §6, §7

NIH:3T3 = assay type: cell-based, mouse; conditions: non cancerous cell line 3T3
From the text: as §4, §5, §6, §7

MDA-MB-435 = assay: Fluorescence microscopy, mechanism of action in MDA-MB-435 cells; assay type: cell-based, human; conditions: 10 μM, 5 minutes exposure
Experimental: In brief, human breast cancer cells (MDA-MB-435, passage #252) were seeded onto culture dishes. The following markers were introduced prior to adding EP100: DRAQ5™ (Alexis Corporation)—blue—was used for staining of the nucleus and MnoTracker® Red CMXRos (M7512) (Molecular Probes, Inc. OR) were applied for visualizing intact mitochondria. Cell membranes were stained with wheat germ alexa fluor green conjugates (Molecular Probes, Inc. OR).
Cells were loaded first with Mitotracker dye, according to the manufacturers recommendation. […] Culture dishes with saline only served as controls. The supernatant was removed and the remaining cells prepared for fluorescence microscopy imaging.

Substance | Tumor volume compared to saline controls [1] | IC50 (MES-SA-Dx5) | IC50 (Panc-1) | IC50 (OVCAR-3 [2]) | IC50 (OVCAR-3 [3]) | IC50 (OVCAR-3 cells) | IC50 (SKOV-3 cells) | IC50 (NIH:3T3) | Plasma membrane (fluorescence microscopy) (MDA-MB-435)
KFAKFAK KFAKFAK KFAK [Phor18] | ineffective | 28.1 ± 2.5 µM | 18.9 ± 0.2 µM | 20.5 ± 5.1 µM | – | – | – | – | –
KFAKFAKKFAKFAKKFAKQHWSYGLRPG [Phor18-LHRH] | – | – | – | – | 3 ± 0.5 µM | 0.5 µM | 11.5 µM | > 10 µM | disintegration of the plasma membrane
